Laboratory results: patent US20230265151A1, “GIP/GLP1 CO-AGONIST COMPOUNDS” (priority 2020, published 2023)
Like-named read-outs stand apart in the source and are kept apart here. *1 amine or outer side, *2 acyl side, *3 side chain or, on linkers, in order; H or OH if unused. Where a SMILES comes first, the peptide text is derived from it. Side-chain parts run from the residue outwards. [ ]: non-standard residue; d: D form. The star is where a group is joined. αMePhe(2-F) = C[C@](N)(Cc1ccccc1F)C(=O)O; γGlu = O=C(O)[C@H](CCC(=O)[*:2])N[*:1]; C14 diacid = O=C(O)CCCCCCCCCCCCC(=O)*; αMeY = C[C@](N)(Cc1ccc(O)cc1)C(=O)O; αMeL = CC(C)C[C@](C)(N)C(=O)O; Orn = NCCC[C@H](N)C(=O)O; AEEA = NCCOCCOCC(=O)O; Aib = CC(C)(N)C(=O)O

Tests used:
Format in all cases: cell-based
[1] = target: T1, hGIPR (Homo sapiens, UniProt P48546); experiment: Functional cAMP formation (HTRF) in HEK-293 clonal cells expressing hGIPR, 0.1% bovine casein, without or with 1.0% human serum albumin; conditions: for EC50: cAMP, 0.1% bovine casein (no human serum albumin), geometric mean, read-out: hGIPR EC50, nM (SEM, n)
T1 construct: expressed in transfected cells
T1 sequence (P48546 22-466): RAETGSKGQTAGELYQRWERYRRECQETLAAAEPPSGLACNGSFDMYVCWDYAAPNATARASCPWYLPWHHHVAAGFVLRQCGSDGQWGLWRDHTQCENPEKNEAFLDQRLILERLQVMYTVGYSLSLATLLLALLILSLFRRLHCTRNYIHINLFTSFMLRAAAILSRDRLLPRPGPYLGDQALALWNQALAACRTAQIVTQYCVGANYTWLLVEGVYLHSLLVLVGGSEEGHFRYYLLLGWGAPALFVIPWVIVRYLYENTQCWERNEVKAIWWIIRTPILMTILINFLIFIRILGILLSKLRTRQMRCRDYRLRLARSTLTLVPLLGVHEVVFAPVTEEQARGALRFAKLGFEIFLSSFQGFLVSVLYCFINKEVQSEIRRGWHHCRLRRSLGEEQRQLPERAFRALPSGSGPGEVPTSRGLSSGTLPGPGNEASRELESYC
Summary of the method: (§1)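 Cells were stimulated with peptide for 30 min at 37° C, then intracellular cAMP was measured by competitive HTRF (665/620 nm ratio) and converted to nM using a cAMP standard curve. Relative EC50 and Emax came from four-parameter logistic fits of percent maximal response against peptide concentration.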

[2] = target: T2, hGCGR (Homo sapiens, UniProt P47871); experiment: Functional cAMP formation (HTRF) in HEK-293 clonal cells expressing hGCGR, 0.1% bovine casein, without or with 1.0% human serum albumin; conditions: cAMP, read-out: hGCGR EC50, nM (SEM, n)
T2 construct: expressed in transfected cells
Summary of the method: as §1

[3] = target: hGLP-1R (Homo sapiens, UniProt P43220); experiment: Functional cAMP formation (HTRF) in HEK-293 clonal cells expressing hGLP-1R, 0.1% bovine casein, without or with 1.0% human serum albumin; set-up: expressed in transfected cells; conditions: 37° C.; for Emax: read-out: hGLP-1R Emax, % ± SEM; for EC50: cAMP, read-out: hGLP-1R EC50, nM (SEM, n)
Summary of the method: as §1

Chain of hGLP-1R (P43220 24-463): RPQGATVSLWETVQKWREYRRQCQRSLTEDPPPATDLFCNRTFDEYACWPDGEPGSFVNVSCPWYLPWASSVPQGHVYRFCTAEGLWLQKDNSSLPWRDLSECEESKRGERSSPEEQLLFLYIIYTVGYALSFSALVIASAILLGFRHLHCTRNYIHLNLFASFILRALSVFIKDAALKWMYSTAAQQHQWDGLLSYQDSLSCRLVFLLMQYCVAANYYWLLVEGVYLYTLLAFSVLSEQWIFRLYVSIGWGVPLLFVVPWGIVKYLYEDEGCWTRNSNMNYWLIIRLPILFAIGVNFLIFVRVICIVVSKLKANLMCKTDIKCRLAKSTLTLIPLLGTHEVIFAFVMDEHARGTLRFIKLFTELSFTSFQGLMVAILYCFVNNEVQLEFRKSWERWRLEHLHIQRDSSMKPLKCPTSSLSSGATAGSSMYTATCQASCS
T2 sequence (P47871 26-477): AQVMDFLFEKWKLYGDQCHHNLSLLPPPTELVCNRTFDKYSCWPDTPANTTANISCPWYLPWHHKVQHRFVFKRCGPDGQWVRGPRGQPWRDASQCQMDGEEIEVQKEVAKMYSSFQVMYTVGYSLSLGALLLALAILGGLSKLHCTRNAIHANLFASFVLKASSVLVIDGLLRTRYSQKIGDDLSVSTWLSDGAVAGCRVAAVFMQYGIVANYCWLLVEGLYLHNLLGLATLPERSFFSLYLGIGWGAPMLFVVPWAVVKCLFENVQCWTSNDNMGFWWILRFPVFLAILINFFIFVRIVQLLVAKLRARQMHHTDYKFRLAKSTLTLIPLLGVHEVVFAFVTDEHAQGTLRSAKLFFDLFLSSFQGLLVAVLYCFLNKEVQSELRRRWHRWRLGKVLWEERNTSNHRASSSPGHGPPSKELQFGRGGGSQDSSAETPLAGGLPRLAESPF

| Structure (SMILES) | EC50 ([1]; incubated at 37° C.) [nM] | EC50 ([2]; incubated at 37° C., 0.1% bovine casein (no human serum albumin), geometric mean) [nM] | Emax ([3]; HEK293, percent of maximal response to GLP-1(7-36)NH2, 0.1% bovine casein, arithmetic mean) [%] | Emax ([1]; HEK293, cAMP, 37° C., 0.1% bovine casein and 1.0% human serum albumin, percent of maximal response to GIP(1-42)NH2, read-out: hGIPR Emax, % ± SEM) [%] | EC50 ([1]; 37° C.) [nM] | EC50 ([2]; 37° C., 0.1% bovine casein (no human serum albumin), geometric mean) [nM] | EC50 ([2]; 37° C., 0.1% bovine casein and 1.0% human serum albumin, geometric mean (SEM, n)) [nM] | Emax ([3]; HEK293, cAMP, 0.1% bovine casein and 1.0% human serum albumin, percent of maximal response to GLP-1(7-36)NH2) [%] | Emax ([3]; HEK293, cAMP, 0.1% bovine casein, percent of maximal response to GLP-1(7-36)NH2, arithmetic mean) [%] | EC50 ([3]; 0.1% bovine casein (no human serum albumin), geometric mean) [nM] | EC50 ([3]; 0.1% bovine casein and 1.0% human serum albumin, geometric mean (SEM, n)) [nM] |
| --- | --- | --- | --- | --- | --- | --- | --- | --- | --- | --- | --- |
| CC[C@H](C)[C@H](NC(=O)[C@H](CC(C)C)NC(=O)[C@](C)(Cc1ccc(O)cc1)NC(=O)[C@@H](CCC(=O)O)NC(=O)[C@@H](NC(=O)[C@H](CC1CCCCC1)NC(=O)[C@H](CCC(=O)O)NC(=O)C(C)(C)NC(=O)[C@H](CCC(N)=O)NC(=O)[C@H](C)NC(=O)[C@H](CCCCNC(=O)COCCOCCNC(=O)COCCOCCNC(=O)CC[C@H](NC(=O)CCCCCCCCCCCCC(=O)O)C(=O)O)NC(=O)[C@H](CCCN)NC(=O)[C@H](CC(=O)O)NC(=O)[C@H](CC(C)C)NC(=O)[C@](C)(CC(C)C)NC(=O)[C@@H](NC(=O)[C@H](CO)NC(=O)[C@H](Cc1ccncc1)NC(=O)[C@H](CC(=O)O)NC(=O)[C@H](CO)NC(=O)[C@@H](NC(=O)[C@](C)(Cc1ccccc1F)NC(=O)[C@@H](NC(=O)CNC(=O)[C@H](CCC(=O)O)NC(=O)C(C)(C)NC(=O)[C@@H](N)Cc1ccc(O)cc1)[C@@H](C)O)[C@@H](C)O)[C@@H](C)CC)[C@@H](C)CC)C(=O)N[C@@H](CCC(=O)O)C(=O)NCC(=O)NCC(=O)N[C@@H](CCCCNC(=O)COCCOCCNC(=O)COCCOCCNC(=O)CC[C@H](NC(=O)CCCCCCCCCCCCC(=O)O)C(=O)O)C(=O)N[C@@H](CO)C(=O)N[C@@H](CO)C(=O)NCC(=O)N[C@@H](C)C(=O)N1CCC[C@H]1C(=O)N1CCC[C@H]1C(=O)N1CCC[C@H]1C(=O)N[C@@H](CO)C(N)=O [Example 148] | 0.0209 | > 9950 | 94.5 | – | – | – | – | – | – | – | – |
| CC[C@H](C)[C@H](NC(=O)[C@H](CC(C)C)NC(=O)[C@](C)(Cc1ccc(O)cc1)NC(=O)[C@H](CCCCNC(=O)COCCOCCNC(=O)COCCOCCNC(=O)CC[C@H](NC(=O)CCCCCCCCCCCCC(=O)O)C(=O)O)NC(=O)[C@@H](NC(=O)[C@H](Cc1ccccc1)NC(=O)[C@H](CCC(=O)O)NC(=O)C(C)(C)NC(=O)[C@H](CCC(N)=O)NC(=O)[C@H](C)NC(=O)[C@H](CCC(N)=O)NC(=O)[C@H](CCCN)NC(=O)[C@H](CC(=O)O)NC(=O)[C@H](CC(C)C)NC(=O)[C@](C)(CC(C)C)NC(=O)[C@@H](NC(=O)C(C)(C)NC(=O)[C@@H](NC(=O)[C@H](CC(=O)O)NC(=O)[C@H](CO)NC(=O)[C@@H](NC(=O)[C@](C)(Cc1ccccc1F)NC(=O)[C@@H](NC(=O)CNC(=O)[C@H](CCC(=O)O)NC(=O)C(C)(C)NC(=O)[C@@H](N)Cc1ccc(O)cc1)[C@@H](C)O)[C@@H](C)O)C(C)C)[C@@H](C)CC)[C@@H](C)CC)C(=O)N[C@@H](CCCCNC(=O)COCCOCCNC(=O)COCCOCCNC(=O)CC[C@H](NC(=O)CCCCCCCCCCCCC(=O)O)C(=O)O)C(=O)NCC(=O)NCC(=O)N1CCC[C@H]1C(=O)N[C@@H](CO)C(=O)N[C@@H](CO)C(=O)NCC(=O)N[C@@H](C)C(=O)N1CCC[C@H]1C(=O)N1CCC[C@H]1C(=O)N1CCC[C@H]1C(=O)N[C@@H](CO)C(N)=O [Example 390] (H-Y[Aib]EGT[αMePhe(2-F)]TSDV[Aib]I[αMeL]LD[Orn]QAQ[Aib]EFIK([AEEA-AEEA-γGlu-C14 diacid])[αMeY]LIK([AEEA-AEEA-γGlu-C14 diacid])GGPSSGAPPPS-NH2) | – | – | – | 89.3 | 0.0187 | > 9950 | > 9950 | 94.6 | 97.7 | 0.209 | 24.3 |
